Among the data in patent US9216173B2, “2-Pyridyl carboxamide-containing spleen tyrosine kinase (SYK) inhibitors” (Merck Sharp & Dohme Corp., priority 2011, dated 2015) are IC50 values, retold here.

SMILES strings stand for the structures. pIC50: −log10 of the molar value.

The first assay has as its target T1, recombinant human GST-SYK (Homo sapiens, UniProt P43405).
T1 construct: purchased Carna Biosciences 08-176
Briefly: Homogeneous Time-Resolved Fluorescence (HTRF) assay for the recombinant human Syk enzyme. Format: biochemical. The conditions noted are these: GST-hSYK 5 pM, ATP 25 μM, 10-dose titration 10 μM to 0.508 nM; read-out: IC50. The procedure:
Homogeneous Time-Resolved Fluorescence (HTRF) Assay for the Recombinant Human Syk Enzyme
A recombinant GST-hSYK fusion protein was used to measure potency of compounds to inhibit human Syk activity. […] Final volume of the reaction was 10 μL. Phosphorylation of the peptide was allowed to proceed for 45 minutes at room temperature. To quench the reaction and detect the phosphorylated product, 2 nM of a Europium-anti-phosphotyrosine antibody (Perkin Elmer #AD0161) and 70 nM SA-APC (Perkin-Elmer #CR130-100) were added together in 15 mM Tris pH 7.5, 40 mM EDTA, 0.01% tween 20. Final volume of the quenching solution was 10 μL. The resulting HTRF signal was measured after 30 minutes on an EnVision (Perkin-Elmer) reader using a time-resolved fluorescence protocol.
For orientation: Time-resolved FRET reads energy transfer from a long-lived donor to a nearby acceptor.
As to `Cn1ccc(Nc2cc(N[C@H]3[C@@H](N)CCCC3(F)F)cnc2C(N)=O)n1` [Example 1.86, 5-{[(1S,6S)-6-amino-2,2-difluorocyclohexyl]amino}-3-[(1-methyl-1H-pyrazol-3-yl)amino]pyridine-2-carboxamide], the pIC50 is 7.20. On to `CCC(CN)Nc1cnc(C(N)=O)c(Nc2ccn(C)n2)c1` (stereo not drawn) [Example 1.95, 5-{[1-(aminomethyl)propyl]amino}-3-[(1-methyl-1H-pyrazol-3-yl)amino]pyridine-2-carboxamide], for which the pIC50 was 6.92.

The assay is the same for the next values; noted with them: GST-hSYK 5 pM, ATP 25 μM, 10-dose titration 10 μM to 0.508 nM; read-out: rhSYK Activity (IC50 rating).
For `CN1CCN(Cc2cccc(Nc3cc(N[C@@H]4CCCC[C@@H]4N)cnc3C(N)=O)n2)CC1` [Example 1.61, 5-{[(1R,2S)-2-aminocyclohexyl]amino}-3-({6-[(4-methylpiperazin-1-yl)methyl]pyridin-2-yl}amino)pyridine-2-carboxamide], the negative-log IC50 (pIC50) was 6.00 to 7.00. With `Cn1ncc(Nc2cc(N[C@@H]3CCCC[C@@H]3N)cnc2C(N)=O)n1` [Example 1.62, 5-{[(1R,2S)-2-aminocyclohexyl]amino}-3-[(2-methyl-2H-1,2,3-triazol-4-yl)amino]pyridine-2-carboxamide], the pIC50 is 7.00 to 8.00. Consider `NC(=O)c1ncc(N[C@@H]2CCCC[C@@H]2N)cc1Nc1ccn(-c2ccc(Cl)cc2)n1` [Example 1.63, 5-{[(1R,2S)-2-aminocyclohexyl]amino}-3-{[1-(4-chlorophenyl)-1H-pyrazol-3-yl]amino}pyridine-2-carboxamide], for which the negative-log IC50 (pIC50) is over 8.00. The same measure, in the same setting: in the case of `Cc1ccc(-n2ccc(Nc3cc(N[C@@H]4CCCC[C@@H]4N)cnc3C(N)=O)n2)cc1` [Example 1.64, 5-{[(1R,2S)-2-aminocyclohexyl]amino}-3-{[1-(4-methylphenyl)-1H-pyrazol-3-yl]amino}pyridine-2-carboxamide] it was over 8.00; in that of `NC(=O)c1ncc(N[C@@H]2CCCC[C@@H]2N)cc1Nc1ccn(-c2ccc(F)cc2)n1` [Example 1.65, 5-{[(1R,2S)-2-aminocyclohexyl]amino}-3-{[1-(4-fluorophenyl)-1H-pyrazol-3-yl]amino}pyridine-2-carboxamide], over 8.00; in that of `Cc1ccc(-n2ccc(Nc3cc(N[C@@H]4CCCC[C@@H]4N)cnc3C(N)=O)n2)cc1C` [Example 1.66, 5-{[(1R,2S)-2-aminocyclohexyl]amino}-3-{[1-(3,4-dimethylphenyl)-1H-pyrazol-3-yl]amino}pyridine-2-carboxamide], over 8.00.

Consider `Cc1nc(Nc2cc(N[C@@H]3CCCC[C@@H]3N)cnc2C(N)=O)ccc1-n1nccn1` [Example 1.67, 5-{[(1R,2S)-2-aminocyclohexyl]amino}-3-{[6-methyl-5-(2H-1,2,3-triazol-2-yl)pyridin-2-yl]amino}pyridine-2-carboxamide], for which the pIC50 is over 8.00. The same measure, in the same setting: the same measure for `Cn1ncc2c(Nc3cc(N[C@@H]4CCCC[C@@H]4N)cnc3C(N)=O)nc(-c3ccccc3)nc21` [Example 1.69, 5-{[(1R,2S)-2-aminocyclohexyl]amino}-3-[(1-methyl-6-phenyl-1H-pyrazolo[3,4-d]pyrimidin-4-yl)amino]pyridine-2-carboxamide]: over 8.00; for `CCOCC(N)CNc1cnc(C(N)=O)c(Nc2cc(C)cc(C)n2)c1` (stereo not drawn) [Example 1.70, 5-[(2-amino-3-ethoxypropyl)amino]-3-[(4,6-dimethylpyridin-2-yl)amino]pyridine-2-carboxamide]: over 8.00; for `COc1ccc(-n2ccc(Nc3cc(N[C@@H]4CCCC[C@@H]4N)cnc3C(N)=O)n2)cc1` [Example 1.72, 5-{[(1R,2S)-2-aminocyclohexyl]amino}-3-{[1-(4-methoxyphenyl)-1H-pyrazol-3-yl]amino}pyridine-2-carboxamide]: over 8.00. As to `NC(=O)c1ncc(N[C@@H]2CCCC[C@@H]2N)cc1Nc1cc(Cl)cc(Cl)n1` [Example 1.73, 5-{[(1R,2S)-2-aminocyclohexyl]amino}-3-[(4,6-dichloropyridin-2-yl)amino]pyridine-2-carboxamide], the pIC50 is over 8.00. Consider `Cc1nc(Nc2cc(N[C@@H]3CCCC[C@@H]3N)cnc2C(N)=O)ccc1-n1ccnn1` [Example 1.74, 5-{[(1R,2S)-2-aminocyclohexyl]amino}-3-{[6-methyl-5-(1H-1,2,3-triazol-1-yl)pyridin-2-yl]amino}pyridine-2-carboxamide], for which the negative-log IC50 (pIC50) is over 8.00. Consider `Cc1cc(-n2ccnn2)cc(Nc2cc(N[C@@H]3CCCC[C@@H]3N)cnc2C(N)=O)n1` [Example 1.75, 5-{[(1R,2S)-2-aminocyclohexyl]amino}-3-{[6-methyl-4-(1H-1,2,3-triazol-1-yl)pyridin-2-yl]amino}pyridine-2-carboxamide], for which the pIC50 is over 8.00. Still for that read-out and setting: the same measure for `Cc1cc(-n2nccn2)cc(Nc2cc(N[C@@H]3CCCC[C@@H]3N)cnc2C(N)=O)n1` [Example 1.76, 5-{[(1R,2S)-2-aminocyclohexyl]amino}-3-{[6-methyl-4-(2H-1,2,3-triazol-2-yl)pyridin-2-yl]amino}pyridine-2-carboxamide]: over 8.00. On to `Cc1cc(N2CCOCC2)cc(Nc2cc(N[C@@H]3CCCC[C@@H]3N)cnc2C(N)=O)n1` [Example 1.77, 5-{[(1R,2S)-2-aminocyclohexyl]amino}-3-[(6-methyl-4-morpholin-4-ylpyridin-2-yl)amino]pyridine-2-carboxamide], for which the pIC50 was over 8.00. Same read-out and setting: in the case of `Cc1ccc(-n2nc(Nc3cc(N[C@@H]4CCCC[C@@H]4N)cnc3C(N)=O)cc2C)cc1` [Example 1.79, 5-{[(1R,2S)-2-aminocyclohexyl]amino}-3-{[5-methyl-1-(4-methylphenyl)-1H-pyrazol-3-yl]amino}pyridine-2-carboxamide] it was over 8.00; in that of `Cc1cccc(-n2ccc(Nc3cc(N[C@@H]4CCCC[C@@H]4N)cnc3C(N)=O)n2)c1` [Example 1.80, 5-{[(1R,2S)-2-aminocyclohexyl]amino}-3-{[1-(3-methylphenyl)-1H-pyrazol-3-yl]amino}pyridine-2-carboxamide], over 8.00; in that of `NC(=O)c1ncc(N[C@@H]2CCCC[C@@H]2N)cc1Nc1ccn(-c2ccccn2)n1` [Example 1.81, 5-{[(1R,2S)-2-aminocyclohexyl]amino}-3-[(1-pyridin-2-yl-1H-pyrazol-3-yl)amino]pyridine-2-carboxamide], over 8.00. `COC[C@H](N)CNc1cnc(C(N)=O)c(Nc2cccc(-n3nccn3)n2)c1` [Example 1.82, 5-{[(2R)-2-amino-3-methoxypropyl]amino}-3-{[6-(2H-1,2,3-triazol-2-yl)pyridin-2-yl]amino}pyridine-2-carboxamide]: the negative logarithm of the IC50 (pIC50) is over 8.00. Still for that read-out and setting: the same measure for `NC(=O)c1ncc(N[C@H]2[C@@H](N)CCCC2(F)F)cc1Nc1cccc(-n2nccn2)n1` [Example 1.83, 5-{[(1S,6S)-6-amino-2,2-difluorocyclohexyl]amino}-3-{[6-(2H-1,2,3-triazol-2-yl)pyridin-2-yl]amino}pyridine-2-carboxamide]: over 8.00; for `CCC(CN)Nc1cnc(C(N)=O)c(Nc2cccc(-n3nccn3)n2)c1` (stereo not drawn) [Example 1.85, 5-{[1-(aminomethyl)propyl]amino}-3-{[6-(2H-1,2,3-triazol-2-yl)pyridin-2-yl]amino}pyridine-2-carboxanmle]: over 8.00; for `Cn1ccc(Nc2cc(N[C@H]3[C@@H](N)CCCC3(F)F)cnc2C(N)=O)n1` [Example 1.86, 5-{[(1S,6S)-6-amino-2,2-difluorocyclohexyl]amino}-3-[(1-methyl-1H-pyrazol-3-yl)amino]pyridine-2-carboxamide]: 7.00 to 8.00.

For `NC(=O)c1ncc(N[C@H]2[C@@H](N)CCCC2(F)F)cc1Nc1ccn(-c2ccc(F)cc2)n1` [Example 1.87, 5-{[(1S,6S)-6-amino-2,2-difluorocyclohexyl]amino}-3-{[1-(4-fluorophenyl)-1H-pyrazol-3-yl]amino}pyridine-2-carboxamide], the pIC50 was over 8.00. Same read-out and setting: in the case of `CCc1cccc(Nc2cc(N[C@H]3[C@@H](N)CCCC3(F)F)cnc2C(N)=O)n1` [Example 1.88, 5-{[(1S,6S)-6-amino-2,2-difluorocyclohexyl]amino}-3-[(6-ethylpyridin-2-yl)amino]pyridine-2-carboxamide] it was over 8.00; in that of `C[C@H](N)CNc1cnc(C(N)=O)c(Nc2ccn(C)n2)c1` [Example 1.92, 5-{[(2S)-2-aminopropyl]amino}-3-[(1-methyl-1H-pyrazol-3-yl)amino]pyridine-2-carboxamide], 7.00 to 8.00; in that of `C[C@H](N)CNc1cnc(C(N)=O)c(Nc2ccn(-c3ccc(F)cc3)n2)c1` [Example 1.93, 5-{[(2S)-2-aminopropyl]amino}-3-{[1-(4-fluorophenyl)-1H-pyrazol-3-yl]amino}pyridine-2-carboxamide], over 8.00.

For the compound `CCc1cccc(Nc2cc(NC[C@H](C)N)cnc2C(N)=O)n1` [Example 1.94, 5-{[(2S)-2-aminopropyl]amino}-3-[(6-ethylpyridin-2-yl)amino]pyridine-2-carboxamide], the pIC50 was over 8.00. Consider `CCC(CN)Nc1cnc(C(N)=O)c(Nc2ccn(C)n2)c1` (stereo not drawn) [Example 1.95, 5-{[1-(aminomethyl)propyl]amino}-3-[(1-methyl-1H-pyrazol-3-yl)amino]pyridine-2-carboxamide], for which the pIC50 was 6.00 to 7.00. With `CCC(CN)Nc1cnc(C(N)=O)c(Nc2ccn(-c3ccc(F)cc3)n2)c1` (stereo not drawn) [Example 1.96, 5-{[1-(aminomethyl)propyl]amino}-3-{[1-(4-fluorophenyl)-1H-pyrazol-3-yl]amino}pyridine-2-carboxamide], the pIC50 is over 8.00.

Turning to `CCc1cccc(Nc2cc(NC(CC)CN)cnc2C(N)=O)n1` (stereo not drawn) [Example 1.97, 5-{[1-(aminomethyl)propyl]amino}-3-[(6-ethylpyridin-2-yl)amino]pyridine-2-carboxamide], the pIC50 was over 8.00. As for `COC[C@H](N)CNc1cnc(C(N)=O)c(Nc2ccn(C)n2)c1` [Example 1.98, 5-{[(2R)-2-amino-3-methoxypropyl]amino}-3-[(1-methyl-1H-pyrazol-3-yl)amino]pyridine-2-carboxamide], the pIC50 was 6.00 to 7.00.

In general, pIC50 refers to the negative decadic logarithm of the IC50, by convention in mol/L.
